Experimental data from ChEMBL document CHEMBL1149926, “Synthesis of 7-substituted androstenediones by a 1,4-conjugate addition approach” (Bioorg Med Chem Lett, 1995).

These molecules were tested against T1, Aromatase (Homo sapiens, UniProt P11511) (assay: Inhibition of aromatase cytochrome P450 19A1).
T1 sequence (P11511 whole entry): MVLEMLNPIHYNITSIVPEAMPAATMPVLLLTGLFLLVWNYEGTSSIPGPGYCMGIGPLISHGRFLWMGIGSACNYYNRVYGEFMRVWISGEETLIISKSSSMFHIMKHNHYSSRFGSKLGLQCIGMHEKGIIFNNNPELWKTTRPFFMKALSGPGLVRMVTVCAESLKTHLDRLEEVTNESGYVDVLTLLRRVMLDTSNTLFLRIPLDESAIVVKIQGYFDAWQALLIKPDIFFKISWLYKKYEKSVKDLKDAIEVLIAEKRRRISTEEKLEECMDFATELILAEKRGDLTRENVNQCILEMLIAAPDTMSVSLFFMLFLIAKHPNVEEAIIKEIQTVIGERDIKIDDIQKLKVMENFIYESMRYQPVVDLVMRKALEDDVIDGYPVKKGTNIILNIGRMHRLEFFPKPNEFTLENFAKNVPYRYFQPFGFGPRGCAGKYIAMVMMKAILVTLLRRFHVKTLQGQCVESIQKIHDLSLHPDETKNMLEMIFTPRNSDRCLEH

Question: C[C@]12CCC(=O)C=C1C[C@@H](Cc1ccccc1)[C@@H]1[C@@H]2CC[C@]2(C)C(=O)CC[C@@H]12 was tested. Which Ki did it give?
Answer: 0.0131 µM

Question: For C[C@]12C=CC(=O)C=C1C[C@@H](Sc1ccc(N)cc1)[C@@H]1[C@@H]2CC[C@]2(C)C(=O)CC[C@@H]12, which Ki is on record?
Answer: 0.01 µM

Question: For C[C@]12CCC(=O)C=C1C[C@@H](CCc1ccccc1)[C@@H]1[C@@H]2CC[C@]2(C)C(=O)CC[C@@H]12, which Ki is on record?
Answer: 0.0165 µM
